From US20260232767A1, “INTERLEUKIN-23 RECEPTOR ANTAGONIST PEPTIDES FOR USE IN THE TREATMENT OF PSORIASIS” (Janssen Pharmaceutica NV, priority 2023, published 2026)

Test system: subjects with moderate-to-severe plaque psoriasis
Assay: Safety, adverse events, Example 2 through Week 56
Type: in vivo, human
Source text: The LTE safety analysis was based on randomized participants in Example who entered the present long-term extension study and received at least one dose of study intervention (including a partial dose) during the study period.

[1] = Combined, Week 16 through Week 56

## CC(=O)NCCCC[C@@H]1NC(=O)[C@H](Cc2c[nH]c3c(C)cccc23)NC(=O)[C@H]([C@@H](C)O)NC(=O)[C@H](CC(N)=O)NC(=O)[C@@H](NC(C)=O)C(C)(C)SSC(C)(C)[C@@H](C(=O)N[C@@H](Cc2ccc(OCCN)cc2)C(=O)N[C@@H](Cc2ccc3ccccc3c2)C(=O)NC2(C(=O)N[C@@H](CCC(=O)O)C(=O)N[C@@H](CC(N)=O)C(=O)N[C@@H](Cc3cccnc3)C(=O)N(C)CC(N)=O)CCOCC2)NC1=O [IL-23 receptor antagonist peptide, Ac-[Pen]*-N-T-[W(7-Me)]-[Lys(Ac)]-[Pen]*-Phe[4-(2-aminoethoxy)]-[2-Nal]-[THP]-E-N-[3-Pal]-Sarc-NH2 (*[Pen]-[Pen]* formdisulfidebond)]
100 mg QD, through Week 56
  Respiratory, thoracic and mediastinal disorders: number of subjects: 4
  Retinal vein occlusion: number of subjects: 0
  Rhinorrhoea: number of subjects: 0
  Seasonal allergy: number of subjects: 0
  Skin and subcutaneous tissue disorders: % of subjects: (4.7%)
  Skin and subcutaneous tissue disorders: number of subjects: 2
  Skin laceration: % of subjects: (2.3%)
  Skin laceration: number of subjects: 1
  Skin papilloma: number of subjects: 0
  Social circumstances: number of subjects: 0
  Steatohepatitis: number of subjects: 0
  Subjects with AE leading to discontinuation: Abdominal discomfort: 0
  Subjects with AE leading to discontinuation: Abdominal pain: 0
  Subjects with AE leading to discontinuation: Alanine aminotransferase increased: 0
  Subjects with AE leading to discontinuation: Aspartate aminotransferase increased: 0
  Subjects with AE leading to discontinuation: Asthenia: 0
  Subjects with AE leading to discontinuation: Gamma-glutamyltransferase increased: 0
  Subjects with AE leading to discontinuation: Insomnia: 0
  Subjects with AE leading to discontinuation: Investigations: 0
  Subjects with AE leading to discontinuation: Nausea: 0
  Subjects with AE leading to discontinuation: Proctalgia: 0
  Subjects with AE leading to discontinuation: Psoriasis: 0
  Subjects with AE leading to discontinuation: Skin and subcutaneous tissue disorders: 0
  Subjects with AE leading to discontinuation: Transaminases increased: 0
  Subjects with AE leading to discontinuation: Weight increased: 0
  Subjects with COVID-19 associated AE: SARS-CoV-2 test positive: 0
  Subjects with treatment-emergent AE: Alanine aminotransferase increased: 0
  Subjects with treatment-emergent AE: Aspartate aminotransferase increased: 0
  Subjects with treatment-emergent AE: Bronchitis: 0
  Subjects with treatment-emergent AE: Headache: 5
  Subjects with treatment-emergent AE: Urinary tract infection: 0
  Subjects with treatment-emergent serious AE: Cardiac disorders: 0
  Subjects with treatment-emergent serious AE: Cerebrovascular accident: 0
  Subjects with treatment-emergent serious AE: Coronary artery disease: 0
  Subjects with treatment-emergent serious AE: Foot deformity: 0
  Subjects with treatment-emergent serious AE: General disorders and administration site conditions: 0
  Subjects with treatment-emergent serious AE: Infected cyst: 0
  Subjects with treatment-emergent serious AE: Injury, poisoning and procedural complications: 0
  Subjects with treatment-emergent serious AE: Ligament injury: 0
  Subjects with treatment-emergent serious AE: Neoplasms benign, malignant and unspecified (incl cysts and polyps): 0
  Subjects with treatment-emergent serious AE: Nervous system disorders: 0
  Subjects with treatment-emergent serious AE: Non-cardiac chest pain: 0
  Subjects with treatment-emergent serious AE: Respiratory, thoracic and mediastinal disorders: 0
  Subjects with treatment-emergent serious AE: Tonsillar hypertrophy: 0
  Subjects with treatment-emergent serious AE: Uterine leiomyoma: 0
  Subjects with treatment-emergent serious AE: Ventricular dysfunction: 0
  Suicide attempt: % of subjects: (2.3%)
  Suicide attempt: number of subjects: 1
  Sunburn: number of subjects: 0
  Thrombocytopenia: number of subjects: 0
  Thrombocytosis: number of subjects: 0
  Tonsillar hypertrophy: number of subjects: 0
  Tooth fracture: number of subjects: 0
  Type 2 diabetes mellitus: number of subjects: 0
  Urinary tract disorder: number of subjects: 0
  Uterine leiomyoma: number of subjects: 0
  Vascular disorders: % of subjects: (2.3%)
  Vascular disorders: number of subjects: 1
  Ventricular dysfunction: number of subjects: 0
  Vertigo: % of subjects: (2.3%)
  Vertigo: number of subjects: 1
  Vitamin D deficiency: number of subjects: 0
[1]
  Number of subjects with treatment-emergent AE: Cholelithiasis: 1
  Number of subjects with treatment-emergent AE: Ear and labyrinth disorders: 2
  Number of subjects with treatment-emergent AE: Endocrine disorders: 1
  Number of subjects with treatment-emergent AE: Eye disorders: 3
  Number of subjects with treatment-emergent AE: Eyelid skin dryness: 1
  Number of subjects with treatment-emergent AE: Goiter: 1
  Number of subjects with treatment-emergent AE: Hepatobiliary disorders: 2
  Number of subjects with treatment-emergent AE: Hypertransaminasemia: 1
  Number of subjects with treatment-emergent AE: Immune system disorders: 2
  Number of subjects with treatment-emergent AE: Insomnia: 1
  Number of subjects with treatment-emergent AE: Ocular cyst: 1
  Number of subjects with treatment-emergent AE: Psychiatric disorders: 1
  Number of subjects with treatment-emergent AE: Retinal vein occlusion: 1
  Number of subjects with treatment-emergent AE: Seasonal allergy: 2
  Number of subjects with treatment-emergent AE: Vertigo: 2
  Subjects with treatment-emergent AE: Cholelithiasis (%): (0.4%)
  Subjects with treatment-emergent AE: Ear and labyrinth disorders (%): (0.9%)
  Subjects with treatment-emergent AE: Endocrine disorders (%): (0.4%)
  Subjects with treatment-emergent AE: Eye disorders (%): (1.3%)
  Subjects with treatment-emergent AE: Eyelid skin dryness (%): (0.4%)
  Subjects with treatment-emergent AE: Goiter (%): (0.4%)
  Subjects with treatment-emergent AE: Hepatobiliary disorders (%): (0.9%)
  Subjects with treatment-emergent AE: Hypertransaminasemia (%): (0.4%)
  Subjects with treatment-emergent AE: Immune system disorders (%): (0.9%)
  Subjects with treatment-emergent AE: Insomnia (%): (0.4%)
  Subjects with treatment-emergent AE: Ocular cyst (%): (0.4%)
  Subjects with treatment-emergent AE: Psychiatric disorders (%): (0.4%)
  Subjects with treatment-emergent AE: Retinal vein occlusion (%): (0.4%)
  Subjects with treatment-emergent AE: Seasonal allergy (%): (0.9%)
  Subjects with treatment-emergent AE: Ventricular dysfunction (%): (0.4%)
  Subjects with treatment-emergent AE: Vertigo (%): (0.9%)
Combined, through Week 56
  Acrochordon: % of subjects: (0.8%)
  Acrochordon: number of subjects: 2
  Actinic keratosis: % of subjects: (0.4%)
  Actinic keratosis: number of subjects: 1
  Alopecia: % of subjects: (0.4%)
  Alopecia: number of subjects: 1
  Asthenia: % of subjects: (0.4%)
  Asthenia: number of subjects: 1
  Asthma: % of subjects: (0.4%)
  Asthma: number of subjects: 1
  Atrioventricular block first degree: % of subjects: (0.4%)
  Atrioventricular block first degree: number of subjects: 1
  Basal cell carcinoma: % of subjects: (0.4%)
  Basal cell carcinoma: number of subjects: 1
  Blood and lymphatic system disorders: % of subjects: (2.0%)
  Blood and lymphatic system disorders: number of subjects: 5
  Bronchitis chronic: % of subjects: (0.4%)
  Bronchitis chronic: number of subjects: 1
  Bundle branch block right: % of subjects: (0.4%)
  Bundle branch block right: number of subjects: 1
  Cardiac disorders: % of subjects: (1.6%)
  Cardiac disorders: number of subjects: 4
  Chills: % of subjects: (0.8%)
  Chills: number of subjects: 2
  Cholelithiasis: % of subjects: (0.4%)
  Cholelithiasis: number of subjects: 1
  Chronic obstructive pulmonary disease: % of subjects: (0.4%)
  Chronic obstructive pulmonary disease: number of subjects: 1
